According to ChEMBL document CHEMBL1201862, “PubChem BioAssay data set” (2004):
“And” between values parts separate entries of the source, which are not always exact repeats. Equal values may be shown once. The source made the active and inactive calls.

Tests used:
[1] = molecular target: T1, Histone-lysine N-methyltransferase NSD2 (Homo sapiens, UniProt O96028); format: biochemical
T1 sequence (O96028 whole entry): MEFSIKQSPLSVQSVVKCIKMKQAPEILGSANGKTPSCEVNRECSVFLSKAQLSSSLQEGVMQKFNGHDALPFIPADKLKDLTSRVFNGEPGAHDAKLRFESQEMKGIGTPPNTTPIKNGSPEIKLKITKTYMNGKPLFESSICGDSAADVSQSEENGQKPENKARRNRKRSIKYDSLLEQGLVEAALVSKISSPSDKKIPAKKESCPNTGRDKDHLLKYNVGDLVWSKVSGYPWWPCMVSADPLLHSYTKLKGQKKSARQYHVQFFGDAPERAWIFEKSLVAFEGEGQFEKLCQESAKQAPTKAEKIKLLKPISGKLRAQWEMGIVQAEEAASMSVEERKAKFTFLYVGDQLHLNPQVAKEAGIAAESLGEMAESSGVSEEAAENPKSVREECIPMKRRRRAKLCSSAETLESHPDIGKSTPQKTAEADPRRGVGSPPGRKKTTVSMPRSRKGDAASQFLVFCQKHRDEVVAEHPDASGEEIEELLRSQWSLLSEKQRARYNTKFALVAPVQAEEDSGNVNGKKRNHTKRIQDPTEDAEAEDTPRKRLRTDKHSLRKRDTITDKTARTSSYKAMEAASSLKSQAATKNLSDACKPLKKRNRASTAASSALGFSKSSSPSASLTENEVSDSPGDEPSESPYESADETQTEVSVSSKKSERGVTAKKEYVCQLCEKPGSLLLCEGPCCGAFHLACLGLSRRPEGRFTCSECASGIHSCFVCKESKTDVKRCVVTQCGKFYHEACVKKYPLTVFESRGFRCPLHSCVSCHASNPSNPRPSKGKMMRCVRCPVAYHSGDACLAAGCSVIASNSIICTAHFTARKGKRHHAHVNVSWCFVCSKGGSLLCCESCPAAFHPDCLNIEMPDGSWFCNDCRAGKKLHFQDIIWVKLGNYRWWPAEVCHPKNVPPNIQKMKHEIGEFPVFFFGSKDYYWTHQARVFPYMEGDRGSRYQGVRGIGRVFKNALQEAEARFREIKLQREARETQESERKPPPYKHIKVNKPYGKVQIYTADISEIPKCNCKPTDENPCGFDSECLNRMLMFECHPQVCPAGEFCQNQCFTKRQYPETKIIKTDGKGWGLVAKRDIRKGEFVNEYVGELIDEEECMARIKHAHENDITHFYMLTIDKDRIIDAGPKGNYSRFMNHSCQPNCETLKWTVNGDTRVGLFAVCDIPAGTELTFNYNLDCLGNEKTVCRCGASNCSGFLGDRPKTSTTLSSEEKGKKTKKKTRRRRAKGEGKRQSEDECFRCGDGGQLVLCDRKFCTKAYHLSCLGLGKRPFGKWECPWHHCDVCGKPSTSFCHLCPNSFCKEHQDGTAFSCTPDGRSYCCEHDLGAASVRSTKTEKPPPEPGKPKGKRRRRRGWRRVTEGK

[2] = molecular target: T2, Tyrosyl-DNA phosphodiesterase 2 (Homo sapiens, UniProt O95551); assay: human TDP2 enzyme inhibitors, dose response, biochemical, epi absorbance, IC50 (AID 743297)
T2 sequence (O95551 whole entry): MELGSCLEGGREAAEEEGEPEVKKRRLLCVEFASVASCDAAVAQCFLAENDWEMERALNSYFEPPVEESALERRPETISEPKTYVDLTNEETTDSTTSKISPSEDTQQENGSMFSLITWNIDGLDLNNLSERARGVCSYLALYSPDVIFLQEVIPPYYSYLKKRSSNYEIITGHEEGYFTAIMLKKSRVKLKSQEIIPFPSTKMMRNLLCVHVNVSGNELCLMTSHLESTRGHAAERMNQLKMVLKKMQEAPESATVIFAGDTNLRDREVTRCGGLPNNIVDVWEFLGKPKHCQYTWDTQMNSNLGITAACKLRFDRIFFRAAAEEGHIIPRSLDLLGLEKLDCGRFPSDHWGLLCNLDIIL

[3] = molecular target: T3, Sentrin-specific protease 7 (Homo sapiens, UniProt Q9BQF6); format: functional;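 further: Luminescence-based dose-response confirmation of ultra-high-throughput screening hits, measuring inhibition of SENP7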
T3 sequence (Q9BQF6 whole entry): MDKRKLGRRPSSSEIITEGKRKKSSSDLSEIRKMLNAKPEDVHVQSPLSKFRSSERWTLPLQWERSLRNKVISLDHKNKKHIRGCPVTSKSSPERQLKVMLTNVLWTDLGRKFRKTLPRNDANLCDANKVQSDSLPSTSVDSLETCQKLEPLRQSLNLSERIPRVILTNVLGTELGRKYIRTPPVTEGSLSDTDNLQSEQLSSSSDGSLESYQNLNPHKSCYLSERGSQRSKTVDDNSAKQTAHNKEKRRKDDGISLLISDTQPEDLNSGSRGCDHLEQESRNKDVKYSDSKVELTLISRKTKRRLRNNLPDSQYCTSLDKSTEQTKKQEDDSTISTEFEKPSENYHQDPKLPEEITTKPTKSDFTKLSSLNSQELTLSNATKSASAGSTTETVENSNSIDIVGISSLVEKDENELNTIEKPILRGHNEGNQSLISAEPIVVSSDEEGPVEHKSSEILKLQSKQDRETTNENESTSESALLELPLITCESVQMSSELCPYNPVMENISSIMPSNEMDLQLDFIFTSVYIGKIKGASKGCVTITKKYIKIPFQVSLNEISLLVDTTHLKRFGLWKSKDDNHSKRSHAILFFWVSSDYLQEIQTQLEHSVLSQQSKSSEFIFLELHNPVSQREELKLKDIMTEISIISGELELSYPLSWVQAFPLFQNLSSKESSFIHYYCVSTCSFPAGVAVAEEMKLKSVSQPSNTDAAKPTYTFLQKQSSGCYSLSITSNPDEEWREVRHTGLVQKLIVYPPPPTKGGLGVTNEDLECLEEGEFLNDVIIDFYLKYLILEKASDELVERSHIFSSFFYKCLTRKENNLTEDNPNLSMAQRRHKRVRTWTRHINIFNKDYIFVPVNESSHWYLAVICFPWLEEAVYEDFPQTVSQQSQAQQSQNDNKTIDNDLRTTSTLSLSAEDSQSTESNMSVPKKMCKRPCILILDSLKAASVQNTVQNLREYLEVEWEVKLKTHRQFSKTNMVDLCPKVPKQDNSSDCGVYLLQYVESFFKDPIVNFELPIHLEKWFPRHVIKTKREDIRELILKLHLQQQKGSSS

Caspase-3 = molecular target: T4, Caspase-3 (Homo sapiens, UniProt P42574); format: functional;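 further: Dose-response selectivity test against caspase-3 for candidate inhibitors of sentrin-specific proteases (SENPs)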
T4 sequence (P42574 whole entry): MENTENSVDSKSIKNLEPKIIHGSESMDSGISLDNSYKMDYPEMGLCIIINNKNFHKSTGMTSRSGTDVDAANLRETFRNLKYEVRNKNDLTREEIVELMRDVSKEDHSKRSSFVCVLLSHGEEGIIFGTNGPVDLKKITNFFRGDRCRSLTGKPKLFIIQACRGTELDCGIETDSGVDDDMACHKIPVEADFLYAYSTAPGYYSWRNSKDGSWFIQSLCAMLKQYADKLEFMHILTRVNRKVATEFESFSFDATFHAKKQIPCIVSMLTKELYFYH

Row | Compound | AC50 [1] | IC50 [2] | IC50 [3] | IC50 (Caspase-3)
1 | CCN1/C(=C/c2ccc3cc(C)ccc3[n+]2CC)Sc2cc(C)c(C)cc21 | 19.5 µM (active) and 8.3 µM (active) | – | – | –
2 | COc1ccc(C(=O)Nc2nc3c(s2)Cc2cc(OC)ccc2-3)cc1 | – | 11.2 µM (inactive) | 2.36 µM (active) | 3.45 µM (active)
3 | Cc1oc2c(c1C(=O)c1ccccc1)C(=O)C(=O)c1ccccc1-2 | 14.3 µM (active) | 14.2 µM (inactive) | 9.15 µM (active) | 29.3 µM (active)
4 | O=C1CCCC2=C1C1(O)C(=O)c3ccccc3C1(O)O2 (stereo not given) | – | 8.01 µM (active) | – | –
5 | O=C1C(Cl)=C(NCCN2CCCCC2)C(=O)c2ccccc21 | 6.54 µM (active) | – | – | –
6 | COc1cc(NCCCNC(C)C)c2nccc(C)c2c1 | 9.71 µM (active) | > 128 µM (inactive) | – | –
7 | CC(/C=C1\SC(=S)N(NS(=O)(=O)c2ccccc2)C1=O)=C\c1ccccc1 | 13 µM (active) | – | 30.7 µM (active) | 7.87 µM (active)
